Source: patent US20230053342A1, “IMIDAZOLIDINONE COMPOUND, PREPARATION METHOD THEREFOR AND USE THEREOF” (BETTA PHARMACEUTICALS CO., LTD, priority 2019, published 2023)

Legend:
PI3Kα = PI3Kα (Homo sapiens, UniProt P42336); test: Kinase experiment (ADP-Glo, luminescence), PI3Kα; assay type: biochemical; details: final concentration of ATP 10 μM; read-out: IC50 of compound to PI3K (nM) α
Protocol: (§1) PI3Kα, PI3Kβ, PI3Kγ kinases undergo enzymatic reactions with their substrates ATP and PIP2:3PS, the amount of the product detected by ADP-Glo agent and luminescence method were used to reflect the enzymatic activities of PI3Kα, PI3Kβ, PI3Kγ (the final concentration of ATP is 10 μM). The above methods were used to test the inhibitory activity of certain compound of the present invention on PI3Kα, PI3Kβ and PI3Kγ kinase.
(§2) Agent: Basic kinase buffer (pH 7.5); PI3Kα, PI3Kβ, PI3Kγ kinase solutions; PIP2:3PS and ATP solutions; ADP-Glo kit (containing 10 mM MgCl2).
(§3) Wherein, the buffer composition: 50 mM Hepes (pH 7.2-7.5), 3 mM MgCl2, 1 mM EGTA, 0.03% CHAPS, 100 mM NaCl, 2 mM DTT; • Compound preparation: The tested compound was diluted to a specific concentration with 100% DMSO. • Process: 1) PI3Kα, PI3Kβ, or PI3Kγ protein solution were dispensed to a 384-well assay plate (6008280, PerkinElmer), and centrifuged at 1000 rpm for 1 minute. • 2) Tested compound, negative control DMSO or positive control BYL719 was dispensed to the above-mentioned 384-well assay plate with the kinase, centrifuged at 1000 rpm for 1 min, and incubated at 25° C. for 15 mins. • 3) PIP2:3PS&ATP solution was added to the above-mentioned 384-well assay plate, centrifuged at 1000 rpm for 1 min, incubated at 25° C. for 60 mins. • 4) 5 μL of ADP-Glo agent (10 mM MgCl2 contained) was transferred to the 384-well assay plate, centrifuged at 1000 rpm for 1 min, incubated at 25° C. for 40 mins. • 5) 10 μL of Detection agent was transferred to the 384-well assay plate, centrifuged at 1000 rpm for 1 min, incubated at 25° C. for 40 mins. • 6) RLU (Relative luminescence unit) value was measured by Envision multifunctional plate reader. The RLU value was used to characterize the degree of reaction between the enzyme and the substrate, and calculate the IC50 value. • 7) Data analysis:
(§4) Compound inhibition rate(% inh)=(negative control RLU-tested compound RLU)/(negative control RLU-positive control RLU)*100%
(§5) The IC50 (half inhibitory concentration) of the compound was obtained using the following nonlinear fitting formula:
(§6) Y=minimum inhibition rate+(max inhibition rate-minimum inhibition rate)/(1+10^((Log IC50−X)*slope)); wherein, X is the log value of the concentration of the tested compound, Y is the inhibition rate of tested compound(% inh).

human tumor cells MCF-7 = test: Cell proliferation assay (CellTiter Glo), MCF-7; assay type: cell-based; details: MCF7, MCF-7 cells incubated for 120 h, read-out: IC50(μM) of compound on MCF cell
Protocol: (§7) Method: The anti-proliferative effects on human tumor cells MCF-7 and HGC27 of certain compounds of the present invention were evaluated by CellTiter Glo assay.
(§8) Detection method: MCF-7 cells were suspended in DMEM culture medium, the cell concentration of which was adjusted to 25000 cells/mL; HGC27 cells were suspended in RPMI-1640 culture medium, the cell concentration of which was adjusted to 5000 cells/mL. 100 μL of cell suspension was dispensed to a 96-well assay plate and placed in a CO2 incubator overnight. The tested compounds were dissolved in DMSO, and 3-fold derail dilution was performed to obtain 10-point concentrations. the 10-point concentrations of the tested compounds or or negative control was transferred to the well containing 100 μL of culture medium respectively, incubated at 37° C., 5% CO2, the HGC27 cells were incubated for 96 h, MCF-7 cells were incubated for 120 h. Then 100 μL of CellTiter-Glo agent was added to the above-mentioned 96-well assay plate, incubated at room temperature for 10 minutes to allow stable luminescence signal. VICTOR™ X5 instrument was used to record RLU (relative luminescence unit), and then calculate the IC50 values were calculated.
(§9) Compound inhibition rate(% inh)=100% −(tested compound RLU-blank control RLU)/(negative control RLU-blank control RLU)*100%
(§10) Blank control: blank culture medium, with no compound or cell;
as §5
(§11) Y=minimum inhibition rate+(max inhibition rate-minimum inhibition rate)/(1+10^((Log IC50−X)*slope)); wherein, X: the log value of the concentration of the tested compound; Y: the inhibition rate of the tested compound(% inh).

human tumor cells HGC27 = test: Cell proliferation assay (CellTiter Glo), HGC27; assay type: cell-based; details: HGC-27, HGC27 cells incubated for 96 h, read-out: IC50(μM) of ompound on HGC-27cell
Protocol: as §7, §8, §9, §10, §5, §11

PI3Kγ = PI3Kγ (Homo sapiens, UniProt P48736); test: Kinase experiment (ADP-Glo, luminescence), PI3Kγ; assay type: biochemical; details: final concentration of ATP 10 μM; read-out: IC50 of compound to PI3K (nM) γ
Sequence of PI3Kγ (P48736 whole entry): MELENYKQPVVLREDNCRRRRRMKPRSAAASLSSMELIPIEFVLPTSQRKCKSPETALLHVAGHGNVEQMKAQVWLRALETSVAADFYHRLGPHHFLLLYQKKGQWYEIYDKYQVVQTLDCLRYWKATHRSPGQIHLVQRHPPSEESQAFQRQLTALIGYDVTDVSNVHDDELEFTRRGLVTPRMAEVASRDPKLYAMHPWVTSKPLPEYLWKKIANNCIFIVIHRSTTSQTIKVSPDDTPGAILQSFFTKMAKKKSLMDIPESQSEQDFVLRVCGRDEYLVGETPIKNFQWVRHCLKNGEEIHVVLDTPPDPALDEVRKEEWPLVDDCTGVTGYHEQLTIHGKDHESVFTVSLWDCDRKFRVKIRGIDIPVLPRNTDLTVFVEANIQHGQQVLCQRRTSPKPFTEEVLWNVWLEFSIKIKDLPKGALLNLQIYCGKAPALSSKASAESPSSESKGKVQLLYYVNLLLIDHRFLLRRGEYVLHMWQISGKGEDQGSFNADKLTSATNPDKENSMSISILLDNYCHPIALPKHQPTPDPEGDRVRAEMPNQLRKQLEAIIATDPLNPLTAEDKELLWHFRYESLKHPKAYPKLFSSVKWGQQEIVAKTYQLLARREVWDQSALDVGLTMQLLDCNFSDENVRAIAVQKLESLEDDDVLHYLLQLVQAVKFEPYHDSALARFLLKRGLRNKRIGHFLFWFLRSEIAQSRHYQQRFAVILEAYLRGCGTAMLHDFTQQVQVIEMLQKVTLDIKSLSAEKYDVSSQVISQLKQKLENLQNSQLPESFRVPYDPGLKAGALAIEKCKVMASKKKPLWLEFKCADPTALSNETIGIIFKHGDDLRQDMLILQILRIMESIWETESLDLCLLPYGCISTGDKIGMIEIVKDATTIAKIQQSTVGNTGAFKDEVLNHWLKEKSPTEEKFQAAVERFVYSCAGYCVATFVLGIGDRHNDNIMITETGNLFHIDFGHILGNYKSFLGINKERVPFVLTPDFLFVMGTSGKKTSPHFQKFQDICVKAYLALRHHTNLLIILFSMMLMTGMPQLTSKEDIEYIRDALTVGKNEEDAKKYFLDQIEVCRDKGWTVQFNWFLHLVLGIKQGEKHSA
Protocol: as §1, §2, §3, §4, §5, §6

PI3Kβ = PI3Kβ (Homo sapiens, UniProt P42338); test: Kinase experiment (ADP-Glo, luminescence), PI3Kβ; assay type: biochemical; details: final concentration of ATP 10 μM; read-out: IC50 of compound to PI3K (nM) β
Sequence of PI3Kβ (P42338 whole entry): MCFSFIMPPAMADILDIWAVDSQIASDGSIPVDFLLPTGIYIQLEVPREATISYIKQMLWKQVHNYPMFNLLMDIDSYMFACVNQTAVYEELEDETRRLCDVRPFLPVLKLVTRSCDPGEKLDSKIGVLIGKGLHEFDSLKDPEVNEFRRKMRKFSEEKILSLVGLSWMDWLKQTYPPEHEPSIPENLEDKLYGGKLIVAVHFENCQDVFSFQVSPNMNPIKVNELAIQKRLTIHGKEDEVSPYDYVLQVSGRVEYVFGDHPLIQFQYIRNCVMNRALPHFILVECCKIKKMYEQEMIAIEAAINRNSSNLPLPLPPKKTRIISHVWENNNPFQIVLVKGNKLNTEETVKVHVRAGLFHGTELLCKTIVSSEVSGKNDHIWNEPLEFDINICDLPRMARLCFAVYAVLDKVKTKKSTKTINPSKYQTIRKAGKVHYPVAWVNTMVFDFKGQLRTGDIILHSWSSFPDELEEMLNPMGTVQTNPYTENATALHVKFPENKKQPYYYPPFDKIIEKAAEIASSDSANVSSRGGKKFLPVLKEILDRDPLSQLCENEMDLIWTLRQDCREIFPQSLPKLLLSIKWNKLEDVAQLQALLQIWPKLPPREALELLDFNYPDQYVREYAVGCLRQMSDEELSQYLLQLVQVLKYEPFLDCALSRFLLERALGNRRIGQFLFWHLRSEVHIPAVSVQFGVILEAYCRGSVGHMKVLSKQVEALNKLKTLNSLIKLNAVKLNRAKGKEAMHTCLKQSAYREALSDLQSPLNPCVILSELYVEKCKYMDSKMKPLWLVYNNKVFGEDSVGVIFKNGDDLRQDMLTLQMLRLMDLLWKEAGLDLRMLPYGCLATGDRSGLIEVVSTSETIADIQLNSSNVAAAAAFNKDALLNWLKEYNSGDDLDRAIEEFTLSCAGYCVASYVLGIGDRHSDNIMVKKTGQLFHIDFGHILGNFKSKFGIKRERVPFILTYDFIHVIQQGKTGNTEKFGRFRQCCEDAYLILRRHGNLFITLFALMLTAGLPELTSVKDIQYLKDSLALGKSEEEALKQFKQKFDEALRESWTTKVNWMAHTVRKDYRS
Sequence of PI3Kβ (P27986 whole entry partner): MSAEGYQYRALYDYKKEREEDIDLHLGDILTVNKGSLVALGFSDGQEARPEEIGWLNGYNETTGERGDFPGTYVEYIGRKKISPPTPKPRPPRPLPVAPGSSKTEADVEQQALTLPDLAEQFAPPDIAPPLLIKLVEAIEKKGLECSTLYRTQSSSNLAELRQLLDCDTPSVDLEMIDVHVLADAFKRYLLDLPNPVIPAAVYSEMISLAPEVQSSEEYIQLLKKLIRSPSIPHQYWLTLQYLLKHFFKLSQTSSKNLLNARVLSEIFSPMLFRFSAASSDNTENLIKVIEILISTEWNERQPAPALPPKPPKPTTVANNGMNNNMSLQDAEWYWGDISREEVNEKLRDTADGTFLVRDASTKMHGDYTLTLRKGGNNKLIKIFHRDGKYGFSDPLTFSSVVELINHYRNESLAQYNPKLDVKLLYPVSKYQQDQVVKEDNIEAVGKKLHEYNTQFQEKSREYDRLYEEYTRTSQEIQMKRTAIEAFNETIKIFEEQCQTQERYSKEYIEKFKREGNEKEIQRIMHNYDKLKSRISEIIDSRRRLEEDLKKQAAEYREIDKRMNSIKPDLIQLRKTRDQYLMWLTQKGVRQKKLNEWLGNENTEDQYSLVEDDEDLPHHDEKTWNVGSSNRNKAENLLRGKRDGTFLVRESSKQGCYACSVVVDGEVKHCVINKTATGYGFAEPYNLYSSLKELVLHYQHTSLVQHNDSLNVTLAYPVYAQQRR
Protocol: as §1, §2, §3, §4, §5, §6

[1] = Pharmacokinetic test in male SD rats; assay type: in vivo; details: rat, plasma; for clearance: intravenous injection, 2 mg/kg; for AUC / Cmax: po, gavage, 10 mg/kg
Protocol: Method: 42 male SD rats, weight: 150-300 g. Divided into 7 groups randomly, with 6 rats in each group. Among the 6 rats in each group, three of them were administrated a single intravenous injection of […] of the example compound, the other three were given intragastric administration of […] of the example compound, blood was collected from the orbital venous plexus at designated time points, plasma was separated, and stored in a −80° C. refrigerator for later use.
The protein of the resultant plasma was precipitated by acetonitrile, the supernatant was extracted, and mixed with water at the ratio of 1:1, took 10 μL of which for LC-MS/MS detection, and calculated the average was calculated.

Sequence of PI3Kα (P42336 whole entry): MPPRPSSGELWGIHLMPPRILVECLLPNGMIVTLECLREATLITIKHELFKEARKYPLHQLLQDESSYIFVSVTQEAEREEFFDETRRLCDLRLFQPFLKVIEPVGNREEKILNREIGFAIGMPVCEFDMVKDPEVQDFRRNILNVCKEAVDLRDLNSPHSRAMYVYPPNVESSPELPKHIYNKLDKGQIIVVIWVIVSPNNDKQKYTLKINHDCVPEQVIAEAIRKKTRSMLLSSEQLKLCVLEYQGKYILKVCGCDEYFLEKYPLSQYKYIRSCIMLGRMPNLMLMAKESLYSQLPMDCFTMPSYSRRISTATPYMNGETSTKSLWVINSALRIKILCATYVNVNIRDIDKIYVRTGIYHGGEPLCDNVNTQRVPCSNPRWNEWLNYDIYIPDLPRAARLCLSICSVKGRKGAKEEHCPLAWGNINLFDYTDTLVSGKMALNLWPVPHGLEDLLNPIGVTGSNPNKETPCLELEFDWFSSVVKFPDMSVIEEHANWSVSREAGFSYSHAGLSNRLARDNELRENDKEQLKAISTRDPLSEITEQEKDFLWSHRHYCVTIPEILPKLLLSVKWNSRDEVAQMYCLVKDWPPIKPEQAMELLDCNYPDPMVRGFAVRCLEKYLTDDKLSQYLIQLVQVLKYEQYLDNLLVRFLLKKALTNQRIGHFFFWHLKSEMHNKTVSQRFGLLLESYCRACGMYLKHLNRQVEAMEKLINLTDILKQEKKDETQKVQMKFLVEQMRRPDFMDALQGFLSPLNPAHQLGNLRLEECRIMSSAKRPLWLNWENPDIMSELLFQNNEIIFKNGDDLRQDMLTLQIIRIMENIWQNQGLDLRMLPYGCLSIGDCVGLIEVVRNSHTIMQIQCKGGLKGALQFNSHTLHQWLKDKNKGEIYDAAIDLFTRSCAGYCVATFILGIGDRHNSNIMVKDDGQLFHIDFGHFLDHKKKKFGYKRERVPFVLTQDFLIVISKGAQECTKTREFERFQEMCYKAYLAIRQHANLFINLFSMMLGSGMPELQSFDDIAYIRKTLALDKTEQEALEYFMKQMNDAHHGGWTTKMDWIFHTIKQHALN
Sequence of PI3Kα (P27986 whole entry partner): as the sequence (P27986 whole entry partner) above

Row | IC50 (PI3Kα) [nM] | IC50 (human tumor cells MCF-7) [µM] | IC50 (human tumor cells HGC27) [µM] | IC50 (PI3Kγ) [nM] | IC50 (PI3Kβ) [nM] | clearance [1] [L/h/kg] | AUC [1] [µg·h/mL] | Cmax [1] [µg/mL] | Structure (SMILES)
1 | 5 to 20 |  |  |  |  |  |  |  | CCN1C(=O)C(C(C)C)N(c2cn3c(n2)-c2ccc(N4CCC[C@H]4C(N)=O)cc2OCC3)C1=O (stereo partly drawn) [Example 7, (2S)-1-(2-(3-ethyl-5-isopropyl-2,4-dioxoimidazolidin-1-yl)-5,6-dihydrobenzo[f]imidazo [1,2-d] [1,4]oxazepin-9-yl) pyrrolidine-2-carboxamide]
2 | 5 to 20 | 0.373 | 4.07 |  |  |  |  |  | CN1C(=O)C(C2CC2)N(c2cn3c(n2)-c2ccc(N4CCC[C@H]4C(N)=O)cc2OCC3)C1=O (stereo partly drawn) [Example 5, (2S)-1-(2-(5-cyclopropyl-3-methyl-2,4-dioxoimidazolidin-1-yl)-5,6-dihydrobenzo[f]imidazo [1,2-d] [1,4]oxazepin-9-yl) pyrrolidine-2-carboxamide]
3 | 5 to 20 |  |  |  |  |  |  |  | CC(C)C1C(=O)N(C2CCC2)C(=O)N1c1cn2c(n1)-c1ccc(N3CCC[C@H]3C(N)=O)cc1OCC2 (stereo partly drawn) [Example 6, (2S)-1-(2-(3-cyclobutyl-5-isopropyl-2,4-dioxoimidazolidin-1-yl)-5,6-dihydrobenzo[f]imidazo [1,2-d] [1,4]oxazepin-9-yl)pyrrolidine-2-carboxamide]
4 | < 5 | 0.107 | 0.415 | 300 to 600 | 300 to 600 | 0.09 | 66.4 | 5.03 | CC(C)[C@@H]1C(=O)N(C2CC2)C(=O)N1c1cn2c(n1)-c1ccc(N3CCC[C@H]3C(N)=O)cc1OCC2 [Example 32, (2S)-1-(2-((5R)-3-cyclopropyl-5-isopropyl-2,4-dioxoimidazolidin-1-yl)-5,6-dihydrobenzo[f]imidazo[1,2-d] [1,4]oxazepin-9-yl)pyrrolidine-2-carboxamide]
5 | < 5 | 0.07 | 0.361 | 300 to 600 | > 600 | 0.119 | 53 | 4.34 | CC(C)C1C(=O)N(C2CC2)C(=O)N1c1cn2c(n1)-c1ccc(N3CCC[C@H]3C(N)=O)cc1OCC2 (stereo partly drawn) [Example 2, (2S)-1-(2-(3-cyclopropyl-5-isopropyl-2,4-dioxoimidazolidin-1-yl)-5,6-dihydrobenzo[f]imidazo[1,2-d][1,4]oxazepin-9-yl)pyrrolidine-2-carboxamide]
6 | < 5 | 0.176 |  | > 600 | > 600 |  |  |  | CC(C)C1C(=O)N(C)C(=O)N1c1cn2c(n1)-c1ccc(N3CCC[C@H]3C(N)=O)cc1OCC2 (stereo partly drawn) [Example 1, (2S)-1-(2-(5-isopropyl-3-methyl-2,4-dioxoimidazolidin-1-yl)-5,6-dihydrobenzo[f]imidazo [1,2-d][1,4]oxazepin-9-yl)pyrrolidine-2-carboxamide]
7 | < 5 | 0.074 |  |  |  | 0.526 | 18.6 | 1.83 | CC(C)C1C(=O)N(C(C)C)C(=O)N1c1cn2c(n1)-c1ccc(N3CCC[C@H]3C(N)=O)cc1OCC2 (stereo partly drawn) [Example 23, (2S)-1-(2-(3,5-diisopropyl-2,4-dioxoimidazolidin-1-yl)-5,6-dihydrobenzo[f]imidazo[1,2-d] [1,4]oxazepin-9-yl)pyrrolidine-2-carboxamide]
8 |  | 0.468 | 3.92 |  |  |  |  |  | CN1C(=O)CN(c2cn3c(n2)-c2ccc(N4CCC[C@H]4C(N)=O)cc2OCC3)C1=O [Example 28, (2S)-1-(2-(3-methyl-2,4-dioxoimidazolidin-1-yl)-5,6-dihydrobenzo[f]imidazo[1,2-d] [1,4]oxazepin-9-yl)pyrrolidine-2-carboxamide]
9 |  | 0.519 | 2.07 |  |  |  |  |  | CC(C)(c1cc(-c2cn3c(n2)-c2ccc(N4CCC[C@H]4C(N)=O)cc2OCC3)ccn1)C(F)(F)F [Control compound 3, (2S)-1-(2-(2-(1,1,1-trifluoro-2-methylpropan-2-yl)pyridn-4-yl)-5,6-dihydrobenzo[f]imidazo[1,2-d][1,4]oxazepin-9-yl)pyrrolidine-2-carboxamide, reference compound]
10 | < 5 |  |  |  |  |  |  |  | CC(C)C1C(=O)N(CC(F)(F)F)C(=O)N1c1cn2c(n1)-c1ccc(N3CCC[C@H]3C(N)=O)cc1OCC2 (stereo partly drawn) [Example 3, (2S)-1-(2-(5-isopropyl-2,4-dioxo-3-(2,2,2-trifluoroethyl)imidazolidine-1-yl)-5,6-dihydrobenzo[f]imdazo[1,2-d] [1,4]oxazepin-9-yl)pyrrolidine-2-carboxamide]
11 |  | 0.549 |  |  |  |  |  |  | NC(=O)[C@@H]1CCCN1c1ccc2c(c1)OCCn1cc(N3C(=O)CC[C@@H]3CO)nc1-2 [Control compound 2, (2S)-1-(2-((2R)-2-(hydroxymethyl)-5-oxopyrrolidine-1-yl)-5,6-dihydrobenzo[f]imidazo[1,2-d][1,4]oxazepin-9-yl)pyrrolidine-2-carboxamide, reference compound]
12 | 5 to 20 | 0.142 |  |  |  |  |  |  | CC(C)C1C(=O)N(c2ccccc2)C(=O)N1c1cn2c(n1)-c1ccc(N3CCC[C@H]3C(N)=O)cc1OCC2 (stereo partly drawn) [Example 9, (2S)-1-(2-(5-isopropyl-2,4-dioxo-3-phenylimidazolidine-1-yl)-5,6-dihydrobenzo[f]imidazo[1,2-d] [1,4]oxazepin-9-yl)pyrrolidine-2-carboxamide]
13 | 5 to 20 |  |  | > 600 | > 600 | 0.285 | 29.1 | 2.69 | CC(C)C1C(=O)N(c2ccc(F)cc2)C(=O)N1c1cn2c(n1)-c1ccc(N3CCC[C@H]3C(N)=O)cc1OCC2 (stereo partly drawn) [Example 4, (2S)-1-(2-(3-(4-fluorophenyl)-5-isopropyl-2,4-dioxoimidazolidin-1-yl)-5,6-dihydrobenzo[f]imidazo [1,2-d][1,4]oxazepin-9-yl)pyrrolidine-2-carboxamide]
14 |  | 0.444 | 1.58 |  |  | 0.996 | 7.88 | 1.96 | C[C@@H]1COC(=O)N1c1cn2c(n1)-c1ccc(N3CCC[C@H]3C(N)=O)cc1OCC2 [Control compound 1, (2S)-1-(2-((4R)-4-methyl-2-oxooxazolidin-3-yl)-5,6-dihydrobenzo[f]imidazo[1,2-d] [1,4]oxazepin-9-yl)pyrrolidine-2-carboxamide, reference compound]
